From patent US20080267936A1, “Treatment of trauma-hemorrhage with short oligopeptides” (Biotempt B.V., priority 2007, published 2008)

Columns and labels:
hemorrhagic shock = experiment: Hemorrhagic shock model, Example 1 (bled to MAP 40 mmHg, 0.9% NaCl resuscitation): blood cells, hematocrit, hepatic blood flow; assay type: in vivo, Wistar rats; settings: for leukocyte concentration, peptide-treated vs non-treated animals: 5 mg/kg i.v. 30 minutes after induction of shock; for leukocytes, minimum during trauma-hemorrhage: 100% at T0, 5 mg/kg i.v. single bolus 30 minutes after induction of shock; for concentrations of circulating macrophages and granulocytes compared to the non-treated animals: 120 minutes after the onset of hemorrhagic shock, single dose; for blood levels of circulating macrophages and granulocytes / concentrations of circulating macrophages and granulocytes compared with the corresponding experimental group / decrease of circulating macrophages and granulocytes compared with concentrations after trauma-hemorrhage: 180 minutes after onset of trauma-hemorrhage; for arterial hepatic blood flow during the shock period: control group 102.6±23.5%
Procedure: Adult male specific pathogen-free Wistar rats (Harlan CPB, Zeist, The Netherlands), weighing 350 to 400 g were used after a minimum seven-day acclimation period. The animals were housed under barrier conditions and kept at 25° C. with a twelve-hour light/dark cycle. Rats were allowed free access to water and chow (−). All procedures were performed in accordance with the Principles of Laboratory Animal Care (NIH publication No. 86-23, revised 1985) under a protocol approved by the Committee on Animal Research of the Erasmus University (protocol EUR 365).
The rats were fasted overnight but were allowed free access to water before the experiment. Subsequent to endotracheal intubation, the rats were mechanically ventilated with an isoflurane (−) N2O/O2 mixture at 60 breaths/minute. Body temperature was continuously maintained at 37.5° C. by placing the animals on a thermo controlled “half-pipe” (UNO, The Netherlands). Polyethylene tubes (PE-50, Becton Dickinson; St. Michielsgestel, The Netherlands) were flushed with heparin and placed via the right carotid artery in the aorta and in the right internal jugular vein. The animals received no heparin before or during the experiment.
Mean arterial pressures (MAP) was measured using transducers (Becton Dickinson) that were connected in line to an electronic recorder (Hewlett Packard, 78354-A Germany) for electronically calculated mean pressures and continuous measurement of the animal's blood pressure. Under semi-sterile conditions, a median laparotomy was performed and ultrasonic perivascular flow probes (Transonic Systems Inc, Maastricht, The Netherlands) were placed on the common hepatic artery and the portal vein. A supra pubic catheter was placed to monitor the urine production during and after resuscitation.
After an acclimatization period of 20 minutes, the rats were randomized into the following five groups: • Hemorrhagic shock group were bled within ten minutes to a mean arterial pressure (MAP) of 40 mmHg and maintained at this level for 60 minutes by withdrawing or re-infusing shed blood as needed. Thereafter, the animals were resuscitated with plus minus four times the volume of the withdrawn blood over 30 minutes with a 0.9% NaCl solution. • The hemorrhagic shock group+peptide A (LAGV (SEQ ID NO:3); one-letter amino acid code) underwent the same procedure as the hemorrhagic shock group but received a single bolus injection of 5 mg/kg peptide A intravenously 30 minutes after the induction of shock. • The hemorrhagic shock group+peptide B (AQGV (SEQ ID NO:1)) underwent the same procedure as the hemorrhagic shock group and received a single bolus injection of 5 mg/kg peptide B intravenously, 30 minutes after the induction of shock. • The hemorrhagic shock group+peptide C (LQGV (SEQ ID NO:2)) underwent the same procedure as the hemorrhagic shock group and received a single bolus injection of 5 mg/kg peptide C intravenously, 30 minutes after the induction of shock. • Sham group underwent the same procedure as the hemorrhagic shock group without performing the hemorrhage or administration of any kind of peptides.
The hepatic arterial blood flow (QHA) and hepatic portal venous blood flow (QVP) were measured with transit time ultrasonic perivascular flow probes, connected to an ultrasonic meter (T201; Transonic Systems, Inc., Maastricht, NL). Systemic and hepatic hemodynamics were continuously measured. At regular time points, arterial blood samples were taken. The animals were euthanized by withdrawal of arterial blood via the carotid artery.
Plasma collection and storage: Whole arterial blood was obtained at −15, 30, 60, 90, 120, 150 and 180 minutes after induction of shock via the right carotid artery and collected in duplo. 0.2 ml was placed in tubes (Eppendorf EDTA KE/1.3) to be assayed in the coulter counter (−). 0.5 ml was placed in Minicollect tubes (Bio-one, Greiner) centrifuged for five minutes, immediately frozen, and stored at −80° C., until assayed. […]

TNF-α [1] = experiment: Hemorrhagic shock model, Example 2: TNF-α plasma levels by ELISA; assay type: in vivo, Wistar rats; settings: for increase in plasma TNF-α levels during the experiment: 10 mg/kg single bolus 30 minutes after onset of shock, up to 180 minutes; for TNF-α plasma levels: 10 mg/kg single dose after induction of hemorrhagic shock, vs non-treated HS
Procedure: (§1) Adult male specific pathogen-free Wistar rats (Harlan CPB, Zeist, The Netherlands), weighing 350 to 400 g were used. Animals were housed under barrier conditions at 25° C. with a twelve-hour light/dark cycle, and were allowed food and water ad libitum. The experimental protocol was approved by the Animal Experiment Committee under the Dutch Experiments on Animals Act and adhered to the rules laid down in this national law that serves the implementation of “Guidelines on the protection of experimental animals” by the Council of Europe (1986), Directive 86/609/EC.
(§2) Synthetic oligopeptides: The oligopeptides (LQGV (SEQ ID NO:2), AQGV (SEQ ID NO:1), and LAGV (SEQ ID NO:3)) were synthesized by Ansynth Service B.V. (Roosendaal, The Netherlands) and dissolved in 0.9% NaCl at a concentration of 10 mg/ml.
Surgical procedures: Rats were food deprived overnight before the experiment, but were allowed water ad libitum. Rats were anesthetized using a mixture of N2O/O2 isoflurane (Pharmachemie B.V., Haarlem, The Netherlands). Body temperature was continuously maintained at 37.5° C. by placing the rats on a thermo controlled “half-pipe” (UNO, Rotterdam, The Netherlands). Endotracheal intubation was performed, and rats were ventilated at 60 breaths per minute with a mixture of N2O/O2 2% isoflurane. Polyethylene tubes (PE-50, Becton Dickinson; St. Michielsgestel, The Netherlands) were flushed with heparin and placed via the right carotid artery in the aorta and in the right internal jugular vein. The rats received no heparin before or during the experiment.
(§3) Experimental procedures: After an acclimatization period of 15 minutes, the rats were randomized into five different groups: 1) sham, 2) hemorrhagic shock (HS), 3) hemorrhagic shock with LQGV (SEQ ID NO:2) treatment (HS/LQGV (SEQ ID NO:2)), 4) hemorrhagic shock with AQGV treatment (HS/AQGV (SEQ ID NO:1)) and 5) hemorrhagic shock with LAGV (SEQ ID NO:3) treatment (HS/LAGV (SEQ ID NO:3). Hemorrhagic shock was induced by blood withdrawal, reducing the circulating blood volume until a mean arterial pressure (MAP) of […] mmHg was reached. This level of hypotension was maintained for 60 minutes. After 30 minutes, rats received either a single bolus injection of 10 mg/kg LQGV (SEQ ID NO:2), AQGV (SEQ ID NO:1), LAGV (SEQ ID NO:3), or 0.9% NaCl solution. The peptides and dosage were based on previous studies, in which we performed dose-escalation experiments (manuscript in preparation). Sixty minutes after induction of hemorrhagic shock, rats were resuscitated by autologous blood transfusion over a period of 30 minutes and monitored for another 120 minutes, after which they were sacrificed (FIG. 7, Panel A). Sham animals underwent the same surgical procedure as the hemorrhagic shock animals, but without performing hemorrhage and administration of peptides.
Plasma collection and storage: Arterial blood was obtained 15 minutes before and 30, 60, 90, 120, 150 and 180 minutes after onset of hemorrhage (FIG. 7, Panel A). After blood withdrawal, leukocyte numbers were determined using a coulter counter (Beckman Coulter, Mijdrecht, The Netherlands) and corrected for the hematocrit. Approximately 0.3 ml of blood was placed into mini collect tubes (Greiner, Bio-one, Alphen a/d Rijn, The Netherlands), plasma was obtained by centrifugation (1500 r.p.m.; five minutes), immediately frozen, and stored at −80° C., until assayed.
Measurement of cytokines: TNF-α and IL-6 plasma levels were determined by ELISA (R&D Systems Europe Ltd., Abingdon, UK), according to the manufacturer's instructions.
(§4) Statistical analysis: Statistical analysis was performed using SPSS version 11 software (SPSS Inc., Chicago, Ill.). Inter-group differences were analyzed with Kruskal-Wallis statistical test.

IL-6 [2] = experiment: Hemorrhagic shock model, Example 2: IL-6 plasma levels by ELISA; assay type: in vivo, Wistar rats; settings: 10 mg/kg single dose; 120, 150 and 180 minutes after onset of shock
Procedure: as §1, §2
Surgical procedures: Rats were food deprived overnight before the experiment, but were allowed water ad libitum. Rats were anesthetized using a mixture of N2O/O2 isoflurane (Pharmachemie B.V., Haarlem, The Netherlands). […]
Experimental procedures: After an acclimatization period of 15 minutes, the rats were randomized into five different groups: 1) sham, 2) hemorrhagic shock (HS), 3) hemorrhagic shock with LQGV (SEQ ID NO:2) treatment (HS/LQGV (SEQ ID NO:2)), 4) hemorrhagic shock with AQGV treatment (HS/AQGV (SEQ ID NO:1)) and 5) hemorrhagic shock with LAGV (SEQ ID NO:3) treatment (HS/LAGV (SEQ ID NO:3). […] Sixty minutes after induction of hemorrhagic shock, rats were resuscitated by autologous blood transfusion over a period of 30 minutes and monitored for another 120 minutes, after which they were sacrificed (FIG. 7, Panel A). […]
Plasma collection and storage: Arterial blood was obtained 15 minutes before and 30, 60, 90, 120, 150 and 180 minutes after onset of hemorrhage (FIG. 7, Panel A). After blood withdrawal, leukocyte numbers were determined using a coulter counter (Beckman Coulter, Mijdrecht, The Netherlands) and corrected for the hematocrit. […]

TNF-α [3] = experiment: Hemorrhagic shock model, Example 2: TNF-α mRNA transcripts in tissue by RQ-PCR; assay type: in vivo, Wistar rats; settings: 180 minutes after onset of shock, 10 mg/kg, normalized against GAPDH
Procedure: as §3
(§5) Tissue collection and storage: Liver, lungs, ileum and sigmoid were surgically removed at the end of the experiment, snap-frozen, and stored at −80° C., until assayed.
(§6) Evaluation of mRNA levels by real-time quantitative (RQ)-PCR: RNA was isolated using a QIAGEN kit (QIAGEN, Hilden, Germany), according to the manufacturer's instructions. TNF-α, IL-6 and ICAM-1 transcripts were determined by RQ-PCR using an Applied Biosystems 7700 PCR machine (Foster City, Calif., USA) as described previously.^[27] TNF-α, IL-6 and ICAM-1 expression was quantified by normalization against GAPDH.
as §4

IL-6 [4] = experiment: Hemorrhagic shock model, Example 2: IL-6 mRNA transcripts in tissue by RQ-PCR; assay type: in vivo, Wistar rats; settings: 180 minutes after onset of shock, 10 mg/kg, normalized against GAPDH
Procedure: as §3, §5, §6, §4

ICAM-1 = experiment: Hemorrhagic shock model, Example 2: ICAM-1 mRNA transcripts in tissue by RQ-PCR; assay type: in vivo, Wistar rats; settings: 180 minutes after onset of shock, 10 mg/kg, normalized against GAPDH
Procedure: as §3, §5, §6, §4

[5] = test system: pro-inflammatory cytokines; settings: 150 mg/kg; cited from earlier work

Row | Substance | leukocyte concentration, peptide-treated vs non-treated animals (hemorrhagic shock) | leukocytes, minimum during trauma-hemorrhage (hemorrhagic shock) | concentrations of circulating macrophages and granulocytes compared to the non-treated animals (hemorrhagic shock) | blood levels of circulating macrophages and granulocytes (hemorrhagic shock; 5 mg/kg i.v.) | concentrations of circulating macrophages and granulocytes compared with the corresponding experimental group (hemorrhagic shock; 5 mg/kg i.v.) | decrease of circulating macrophages and granulocytes compared with concentrations after trauma-hemorrhage (hemorrhagic shock; 5 mg/kg i.v.) | blood flow in the hepatic artery during the reperfusion (hemorrhagic shock; reperfusion, 5 mg/kg i.v., shock group 128.9±75.4%, control 83.7±24.2%) | arterial hepatic blood flow during the shock period (hemorrhagic shock; 5 mg/kg i.v.) | increase in plasma TNF-α levels during the experiment (TNF-α [1]) | TNF-α plasma levels (TNF-α [1]) | IL-6 plasma levels compared to the non-treated hemorrhagic shock group (IL-6 [2]) | TNF-α transcripts in the liver compared to non-treated HS (TNF-α [3]) | IL-6 mRNA transcripts in the liver compared to the HS group (IL-6 [4]) | ICAM-1 transcript levels in the liver (ICAM-1) | mRNA expression of pro-inflammatory cytokines in the liver after hemorrhagic shock [5]
1 | AQGV [synthetic tetrapeptide, alanine replacement variant of LQGV from loop two of the β-subunit of hCG] | No significant difference | 47.3±12.4% | decreased | 4,432±0.736 10^9/1 | significantly lower | 29.9% | 78.4±28.3% | 18.1±9.0% | none | significant reduction | significant reduction | reduction | significant reduction | did not affect | –
2 | Alanine-glutamine dipeptide [AG] | – | – | – | – | – | – | – | – | – | – | – | – | – | – | inhibited
3 | LAGV [synthetic tetrapeptide, alanine replacement variant of LQGV from loop two of the β-subunit of hCG] | No significant difference | 42.0±8.7% | – | – | – | – | – | 21.3±9.1% | none | significant reduction | significant reduction | reduction | reduction | did not affect | –
4 | LQGV [synthetic tetrapeptide, part of the primary structure of loop two of the β-subunit of hCG] | No significant difference | 38.2±7.4% | decreased | 3,846±0.636 10^9/1 | significantly lower | 39.2% | – | 21.2±8.6% | none | significant reduction | significant reduction | significant reduction | significant reduction | did not affect | –
